Data taken from patent US20080269248A1, “Tartrate and Malate Salts of Trans-1-((1R,3S)-6-Chloro-3-Phenylindan-1-Yl)-3,3-Dimethylpiperazine” (H. Lundbeck A/S, priority 2005, published 2008).

Columns and labels:
[1] = system: alfal adrenoceptors; conditions: as described in PCT/DK04/000546; cited from earlier work
[2] = target: DA D2 receptors (Homo sapiens, UniProt P14416); conditions: as described in PCT/DK04/000546; cited from earlier work
[3] = target: dopamine (DA) D1 receptors (Homo sapiens, UniProt P21728); conditions: as described in PCT/DK04/000546; cited from earlier work
[4] = target: dopamine D2 receptors (Homo sapiens, UniProt P14416); conditions: as described in PCT/DK04/000546; cited from earlier work
[5] = target: dopamine D1 receptors (Homo sapiens, UniProt P21728); conditions: as described in PCT/DK04/000546; cited from earlier work
[6] = rabbit model; as described in PCT/DK04/000546; cited from earlier work
[7] = target: CYP2D6 (Homo sapiens, UniProt P10635); conditions: as described in PCT/DK04/000546; cited from earlier work
[8] = target: serotonin 5-HT2a receptors (Homo sapiens, UniProt P28223); conditions: as described in PCT/DK04/000546; cited from earlier work
[9] = system: pigs sensitized to haloperidol; experiment: dystonia in pigs sensitized to haloperidol; assay type: in vivo
[10] = solubility of the salts; assay type: physicochemical

Chain of dopamine (DA) D1 receptors (P21728 whole entry): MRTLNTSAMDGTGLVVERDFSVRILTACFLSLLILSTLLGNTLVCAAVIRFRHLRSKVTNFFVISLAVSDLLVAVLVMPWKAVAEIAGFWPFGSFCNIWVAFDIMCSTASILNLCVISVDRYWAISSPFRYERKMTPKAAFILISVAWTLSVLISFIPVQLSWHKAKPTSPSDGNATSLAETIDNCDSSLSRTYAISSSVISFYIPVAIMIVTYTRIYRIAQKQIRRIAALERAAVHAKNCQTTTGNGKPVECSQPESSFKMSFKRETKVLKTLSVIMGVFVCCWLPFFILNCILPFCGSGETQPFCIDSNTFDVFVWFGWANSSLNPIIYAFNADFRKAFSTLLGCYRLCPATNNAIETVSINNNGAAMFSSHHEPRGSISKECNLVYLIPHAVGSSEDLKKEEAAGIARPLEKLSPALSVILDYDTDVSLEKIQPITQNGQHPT
Chain of dopamine D1 receptors (P21728 whole entry): as above
Chain of serotonin 5-HT2a receptors (P28223 whole entry): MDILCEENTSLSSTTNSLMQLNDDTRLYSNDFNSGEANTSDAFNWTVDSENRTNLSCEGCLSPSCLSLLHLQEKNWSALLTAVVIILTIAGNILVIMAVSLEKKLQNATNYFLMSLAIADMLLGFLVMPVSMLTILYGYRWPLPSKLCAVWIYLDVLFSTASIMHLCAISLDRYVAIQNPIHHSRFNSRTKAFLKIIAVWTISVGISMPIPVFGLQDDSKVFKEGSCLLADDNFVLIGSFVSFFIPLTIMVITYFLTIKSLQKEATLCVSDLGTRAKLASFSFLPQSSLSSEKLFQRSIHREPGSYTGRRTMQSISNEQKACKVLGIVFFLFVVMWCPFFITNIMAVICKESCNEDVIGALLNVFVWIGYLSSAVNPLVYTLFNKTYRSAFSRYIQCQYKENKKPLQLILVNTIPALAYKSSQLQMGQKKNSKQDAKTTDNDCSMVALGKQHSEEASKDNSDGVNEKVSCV
Chain of DA D2 receptors (P14416 whole entry): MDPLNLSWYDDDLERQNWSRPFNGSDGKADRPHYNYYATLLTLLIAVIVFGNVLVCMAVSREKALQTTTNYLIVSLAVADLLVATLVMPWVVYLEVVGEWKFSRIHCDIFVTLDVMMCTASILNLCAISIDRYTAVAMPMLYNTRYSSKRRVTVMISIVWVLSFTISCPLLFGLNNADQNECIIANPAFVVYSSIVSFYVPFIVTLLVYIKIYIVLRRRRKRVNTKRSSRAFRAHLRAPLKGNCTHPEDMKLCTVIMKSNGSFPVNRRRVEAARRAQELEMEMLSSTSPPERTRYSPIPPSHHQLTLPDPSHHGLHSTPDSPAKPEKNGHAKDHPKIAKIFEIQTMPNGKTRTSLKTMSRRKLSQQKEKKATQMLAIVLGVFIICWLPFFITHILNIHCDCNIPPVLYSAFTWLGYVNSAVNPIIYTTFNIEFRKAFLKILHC
Chain of dopamine D2 receptors (P14416 whole entry): as above
Chain of CYP2D6 (P10635 whole entry): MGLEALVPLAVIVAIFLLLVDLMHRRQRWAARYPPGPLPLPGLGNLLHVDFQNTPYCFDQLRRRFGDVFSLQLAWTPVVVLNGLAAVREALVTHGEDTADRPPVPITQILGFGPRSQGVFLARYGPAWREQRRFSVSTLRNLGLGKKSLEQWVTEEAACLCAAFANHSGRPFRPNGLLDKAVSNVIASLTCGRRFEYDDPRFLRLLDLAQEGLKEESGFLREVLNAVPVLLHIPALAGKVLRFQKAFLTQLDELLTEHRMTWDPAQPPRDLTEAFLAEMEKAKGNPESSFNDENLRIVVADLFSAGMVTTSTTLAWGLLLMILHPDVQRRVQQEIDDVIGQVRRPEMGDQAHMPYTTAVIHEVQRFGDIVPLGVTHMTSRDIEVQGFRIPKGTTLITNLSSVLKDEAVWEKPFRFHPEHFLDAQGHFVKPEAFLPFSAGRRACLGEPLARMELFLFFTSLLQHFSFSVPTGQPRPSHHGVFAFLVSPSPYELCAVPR

SMILES	affinity for alfal adrenoceptors [1]	affinity for DA D2 receptors [2]	affinity for dopamine (DA) D1 receptors [3]	functional activity at dopamine D2 receptors [4]	functional activity at dopamine D1 receptors [5]	effect on the QT interval [6]	inhibition of CYP2D6 [7]	functional activity at serotonin 5-HT2a receptors [8]	induction of dystonia (EPS liability) [9]	solubility [10]
CC1(C)CN([C@@H]2C[C@@H](c3ccccc3)c3ccc(Cl)cc32)CCN1 [Compound I, trans-1-((1R,3S)-6-chloro-3-phenylindan-1-yl)-3,3-dimethylpiperazine]	high affinity	high affinity	high affinity	antagonist	antagonist	relatively low effect	relatively weak inhibitor	antagonist	did not induce dystonia	–
CC1(C)CN([C@@H]2C[C@@H](c3ccccc3)c3ccc(Cl)cc32)CCN1.CC1(C)CN([C@@H]2C[C@@H](c3ccccc3)c3ccc(Cl)cc32)CCN1.O=C(O)C[C@H](O)C(=O)O (relative stereo) [malate salt, trans-1-((1R,3S)-6-chloro-3-phenylindan-1-yl)-3,3-dimethylpiperazinium L-malate]	–	–	–	–	–	–	–	–	–	800 µg/mL
